Data on 20 molecules can be found in ChEMBL document CHEMBL3091290, “2-(2-Phenylmorpholin-4-yl)pyrimidin-4(3H)-ones; a new class of potent, selective and orally active glycogen synthase kinase-3β inhibitors” (Bioorg Med Chem Lett, 2013).

Data set [1] deals with Cytochrome P450 3A4 (Homo sapiens, UniProt P08684). Briefly: Inhibition of recombinant human CYP3A4. The class given is ADME.
The test system of data set [2] is Liver microsome. Briefly: Intrinsic clearance in human liver microsomes. The class given is ADME. Background: Liver microsomes are vesicles of endoplasmic reticulum, rich in cytochrome P450 enzymes.
Data set [3] has as its target Cytochrome P450 2D6 (Homo sapiens, UniProt P10635). Put plainly: Inhibition of recombinant human CYP2D6. The class given is ADME.
For data set [4], the target named is T1, Cytochrome P450 1A2 (Homo sapiens, UniProt P05177).
T1 sequence (P05177 whole entry): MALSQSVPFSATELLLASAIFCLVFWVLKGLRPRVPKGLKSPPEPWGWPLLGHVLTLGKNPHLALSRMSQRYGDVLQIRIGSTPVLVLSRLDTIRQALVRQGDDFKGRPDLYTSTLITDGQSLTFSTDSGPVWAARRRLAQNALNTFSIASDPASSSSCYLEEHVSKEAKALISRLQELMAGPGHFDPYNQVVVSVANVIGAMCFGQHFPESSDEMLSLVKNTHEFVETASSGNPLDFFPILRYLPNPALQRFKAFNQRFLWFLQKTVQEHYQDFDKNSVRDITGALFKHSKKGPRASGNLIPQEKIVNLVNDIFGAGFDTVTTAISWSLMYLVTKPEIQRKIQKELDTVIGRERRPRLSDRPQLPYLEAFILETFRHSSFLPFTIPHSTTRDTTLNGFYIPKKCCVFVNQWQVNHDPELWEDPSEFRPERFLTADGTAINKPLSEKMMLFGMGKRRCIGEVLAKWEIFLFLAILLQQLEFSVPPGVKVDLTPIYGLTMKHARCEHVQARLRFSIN
Briefly: Inhibition of recombinant human CYP1A2. It counts as ADME.

The target of data set [5] is Glycogen synthase kinase-3 beta (Homo sapiens, UniProt P49841). Briefly: Inhibition of human recombinant GSK-3beta using prephosphorylated GS1 peptide and [gamma-32P]ATP as substrate after 1 hr by liquid scintillation spectrometry.
Data set [6] concerns MDR1 (P-glycoprotein). Briefly: Permeability efflux ratio in MDR1 expressing pig LLC cells. It counts as ADME, cell-based, Sus scrofa. The settings on record: LLC-PK1.
A short description of data set [7]: Oral bioavailability in Sprague-Dawley rat at 10 mg/kg. It counts as ADME, organism-based. As to conditions: in vivo.
Data set [8] can be described thus: Permeability of the compound across human Caco2 cells. It counts as ADME, cell-based. As to conditions: Caco-2, read-out: permeability. (In general: Caco-2 cells form a polarised layer with tight junctions and transporters.)
A short description of data set [9]: Ratio of drug level in brain (0 to infinity) to plasma (0 to infinity) in ICR mouse at 1 mg/kg, po. It counts as ADME, organism-based. More on the design: dose 1 mg/kg, route oral. The settings on record: read-out: BPR.
Data set [10] is described as follows: AUC (0 to infinity) in Sprague-Dawley rat at 10 mg/kg, po. The class given is ADME, organism-based. As to conditions: plasma. Set-up: time infinity, dose 10 mg/kg, route oral.
Data set [11] deals with Rattus norvegicus. Briefly: Cmax in Sprague-Dawley rat at 10 mg/kg, po. It counts as ADME, organism-based. Set-up: dose 10 mg/kg, route oral. As to conditions: in vivo.
Data set [12] in a line: Volume of distribution at steady state in Sprague-Dawley rat at 1 mg/kg, iv. As to conditions: in vivo, read-out: Vdss. Set-up: dose 1 mg/kg, route intravenous. It counts as ADME, organism-based.
Data set [13] is described as follows: Half life in Sprague-Dawley rat at 10 mg/kg, po. The class given is ADME, organism-based. Set-up: dose 10 mg/kg, route oral. The settings on record: in vivo.
For data set [14], the target named is Casein kinase I isoform alpha (Homo sapiens, UniProt P48729). Put plainly: Inhibition of CK1 (unknown origin).
Data set [15] in a line: Total clearance in Sprague-Dawley rat at 1 mg/kg, iv. Set-up: dose 1 mg/kg, route intravenous. As to conditions: in vivo. It counts as ADME, organism-based.
For data set [16], the system named is Liver microsome. Briefly: Clearance in rat liver microsomes. It counts as ADME.

Cytochrome P450 3A4, sequence (P08684 whole entry): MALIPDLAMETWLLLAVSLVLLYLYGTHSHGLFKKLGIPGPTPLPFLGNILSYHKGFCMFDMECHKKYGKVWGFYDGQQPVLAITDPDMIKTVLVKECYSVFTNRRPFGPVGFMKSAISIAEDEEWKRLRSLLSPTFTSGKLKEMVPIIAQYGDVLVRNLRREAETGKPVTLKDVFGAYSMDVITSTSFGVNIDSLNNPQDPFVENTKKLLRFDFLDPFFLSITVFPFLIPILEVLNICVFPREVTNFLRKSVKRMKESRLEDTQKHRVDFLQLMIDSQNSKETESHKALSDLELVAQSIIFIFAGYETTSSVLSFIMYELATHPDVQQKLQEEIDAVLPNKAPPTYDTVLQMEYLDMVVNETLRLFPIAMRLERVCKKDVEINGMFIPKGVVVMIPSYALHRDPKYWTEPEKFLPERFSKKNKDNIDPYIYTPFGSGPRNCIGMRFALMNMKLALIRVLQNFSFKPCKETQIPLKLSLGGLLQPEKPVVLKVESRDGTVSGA
Glycogen synthase kinase-3 beta, sequence (P49841 whole entry): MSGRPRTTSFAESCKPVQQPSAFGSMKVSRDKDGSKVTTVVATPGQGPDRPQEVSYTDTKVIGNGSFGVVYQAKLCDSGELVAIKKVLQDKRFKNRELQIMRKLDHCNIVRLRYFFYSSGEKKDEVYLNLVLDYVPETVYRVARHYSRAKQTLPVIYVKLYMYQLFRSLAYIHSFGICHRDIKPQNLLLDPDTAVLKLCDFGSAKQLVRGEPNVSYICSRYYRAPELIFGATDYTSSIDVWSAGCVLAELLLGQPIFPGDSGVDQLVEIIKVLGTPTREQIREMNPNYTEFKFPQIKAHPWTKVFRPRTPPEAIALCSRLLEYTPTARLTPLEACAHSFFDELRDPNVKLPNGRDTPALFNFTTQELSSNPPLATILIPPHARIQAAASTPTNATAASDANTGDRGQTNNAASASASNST
Cytochrome P450 2D6, sequence (P10635 whole entry): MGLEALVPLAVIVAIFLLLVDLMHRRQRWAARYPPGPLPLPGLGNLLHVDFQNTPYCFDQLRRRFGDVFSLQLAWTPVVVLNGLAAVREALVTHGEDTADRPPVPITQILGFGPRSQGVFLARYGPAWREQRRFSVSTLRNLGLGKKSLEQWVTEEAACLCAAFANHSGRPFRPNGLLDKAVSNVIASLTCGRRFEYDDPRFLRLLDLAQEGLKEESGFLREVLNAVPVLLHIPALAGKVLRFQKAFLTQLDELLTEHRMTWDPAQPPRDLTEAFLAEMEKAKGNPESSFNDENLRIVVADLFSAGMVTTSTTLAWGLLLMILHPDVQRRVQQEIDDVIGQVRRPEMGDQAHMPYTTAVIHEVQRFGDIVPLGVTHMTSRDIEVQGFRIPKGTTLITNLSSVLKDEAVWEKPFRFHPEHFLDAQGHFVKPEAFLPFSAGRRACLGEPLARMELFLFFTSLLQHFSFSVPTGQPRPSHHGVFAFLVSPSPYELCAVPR
Casein kinase I isoform alpha, sequence (P48729 whole entry, canonical isoform): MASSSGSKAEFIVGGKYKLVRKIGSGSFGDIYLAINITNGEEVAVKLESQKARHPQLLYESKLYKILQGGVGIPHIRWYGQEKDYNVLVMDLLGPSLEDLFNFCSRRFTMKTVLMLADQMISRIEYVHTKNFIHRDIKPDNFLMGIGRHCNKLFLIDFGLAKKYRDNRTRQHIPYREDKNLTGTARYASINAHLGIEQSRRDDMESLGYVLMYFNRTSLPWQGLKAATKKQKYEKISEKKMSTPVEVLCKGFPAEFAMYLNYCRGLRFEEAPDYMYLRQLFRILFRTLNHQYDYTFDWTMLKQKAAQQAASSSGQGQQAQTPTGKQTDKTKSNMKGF

As usually defined, the IC50 is the concentration that gives 50% inhibition. `COc1cccc([C@H]2CN(c3nc(-c4ccncn4)cc(=O)n3C)CCO2)c1`: the IC50 is more than 50 µM in data set [1], 26.6 µM in [3], more than 50 µM in data set [4] and 0.0046 µM in data set [5]. This molecule registered an Intrinsic clearance in data set [2] of 130 µL/min/mg.
As for `Cn1c(N2CCO[C@@H](c3ccc(F)cc3)C2)nc(-c2ccncc2)cc1=O`, the half-maximal inhibitory concentration (IC50) in data set [1] is more than 50 µM; in data set [3], 44.2 µM; in [4] it was 17.1 µM; in data set [5], 0.022 µM.
Turning to `Cn1c(N2CCO[C@H](c3ccc(F)cc3)C2)nc(-c2ccncc2)cc1=O`, the IC50 in [5] was found to be 0.077 µM.
In the case of `Cn1c(N2CCO[C@@H](c3ccc(F)cc3)C2)nc(-c2ccncc2F)cc1=O`, the half-inhibitory concentration (IC50) in data set [1] is more than 50 µM; in [3] it was 22.1 µM; in data set [4], 5.5 µM; in data set [5], 0.0074 µM.
As to `Cn1c(N2CCO[C@@H](c3ccc(F)cc3)C2)nc(-c2ccncc2Cl)cc1=O`, the concentration for half-maximal inhibition (IC50) in [5] was found to be 0.43 µM.
On the same count and under the same terms, in the case of `Cc1cnccc1-c1cc(=O)n(C)c(N2CCO[C@@H](c3ccc(F)cc3)C2)n1` it was 2.47 µM; in that of `COc1cnccc1-c1cc(=O)n(C)c(N2CCO[C@@H](c3ccc(F)cc3)C2)n1`, 0.791 µM.
As for `Cn1c(N2CCO[C@@H](c3ccc(F)cc3)C2)nc(-c2ccnc(Cl)c2)cc1=O`, in data set [5], the IC50 was determined as 0.903 µM.
The term efflux ratio denotes a quotient of directional permeabilities that is used to spot active efflux. A word on the bioavailability: it is dose-corrected exposure relative to a reference, in per cent. Higher therefore signals much systemic uptake. For orientation: AUC(0-inf) means total exposure, with the tail of the curve extrapolated. Read a low AUC(0-inf) as low exposure. One may read the Cmax as the highest concentration seen after dosing. The term half-life denotes the time needed for the level to fall by half in the phase considered. Higher therefore signals slow decline. By clearance is commonly meant the rate of elimination divided by the concentration. The low end stands for a low capacity for elimination, the high end for a high capacity for elimination. On to `Cn1c(N2CCO[C@@H](c3ccc(F)cc3)C2)nc(-c2ccncn2)cc1=O`, for which the efflux ratio in [6] worked out at 1. For the same molecule, the bioavailability in data set [7] amounted to 37%. The Papp in data set [8] came out at 58.3 ×10⁻⁶ cm/s. In addition, the Kp in data set [9] was 3.1. In addition, the total exposure AUC(0-inf) in data set [10] came out at 1300 ng·h/mL. In addition, in data set [11], the peak level (Cmax) was 221 ng/mL. Further, the Vd in data set [12] was found to be 2.4 L/kg. The half-life in [13] is 1.7 h. Also, the concentration for half-maximal inhibition (IC50) in [14] was 1.5 µM; in [1], more than 50 µM; in [3] it was 39.7 µM; in [4] it was 29.4 µM; in data set [5], 0.012 µM. Besides, the clearance in data set [15] is 48.3 mL/min/kg. Moreover, in data set [2], the Intrinsic clearance worked out at 60 µL/min/mg.
In data set [2], `Cn1c(N2CCO[C@@H](c3ccc(C#N)cc3)C2)nc(-c2ccncn2)cc1=O` returned an Intrinsic clearance of 30 µL/min/mg. Moreover, the concentration for half-maximal inhibition (IC50) in [3] is 4.5 µM; in data set [4], more than 50 µM; in data set [5], 0.013 µM.
In the same order, the values of `COc1ccc([C@H]2CN(c3nc(-c4ccncn4)cc(=O)n3C)CCO2)cc1` are 110 µL/min/mg, 6.9 µM, more than 50 µM and 0.0029 µM.
In the same order, the values of `Cn1c(N2CCO[C@@H](c3ccccc3F)C2)nc(-c2ccncn2)cc1=O` are 100 µL/min/mg, 32.4 µM, 23.3 µM and 0.0032 µM.
`COc1ccccc1[C@H]1CN(c2nc(-c3ccncn3)cc(=O)n2C)CCO1` gave an Intrinsic clearance in [2] of 190 µL/min/mg. Also, the IC50 in data set [3] was determined as 16 µM; in data set [4], 15.7 µM; in data set [5], 0.00087 µM.
In the same order, the values of `COc1cc(F)ccc1[C@H]1CN(c2nc(-c3ccncn3)cc(=O)n2C)CCO1` are 180 µL/min/mg, 18 µM, 16.5 µM and 0.00047 µM.
Taken in the same sequence, the figures for `COc1cccc(OC)c1[C@H]1CN(c2nc(-c3ccncn3)cc(=O)n2C)CCO1` were 200 µL/min/mg, more than 50 µM, more than 50 µM and 0.00023 µM.
Taken in the same sequence, the figures for `Cn1c(N2CCO[C@@H](c3ccc(C#N)cc3F)C2)nc(-c2ccncn2)cc1=O` were 30 µL/min/mg, 26.7 µM, more than 50 µM and 0.0065 µM.
For `Cn1c(N2CCO[C@@H](c3c(F)cccc3Cl)C2)nc(-c2ccncn2)cc1=O`, the Intrinsic clearance in [2] turned out to be 70 µL/min/mg. Also, the IC50 is 32.3 µM in data set [3], 19.5 µM in data set [4] and 0.00064 µM in [5].
Consider `Cn1c(NCC(=O)c2ccccc2)nc(-c2ccncc2)cc1=O`, for which the concentration for half-maximal inhibition (IC50) in [1] and in [3] was more than 50 µM each time.
Consider `Cn1c(N2CCOC(c3ccccc3)C2)nc(-c2ccncc2)cc1=O` (racemic), for which the IC50 in data set [1] is more than 50 µM; in [3], 47.4 µM; in [4], 23.1 µM; in data set [5], 0.051 µM. The molecule also had a CLH in data set [16] of 155 µL/min/mg.
As for `Cn1c(N2CCOC(c3ccc(F)cc3)C2)nc(-c2ccncc2)cc1=O` (racemic), the IC50 in data set [1] is more than 50 µM; in data set [3], 35.8 µM; in data set [4], 23.9 µM; in data set [5], 0.027 µM. This molecule also had a CLH in [16] of 104 µL/min/mg.
